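Values below derive from 48-hour exposures of cells grown in 96-well plates, with endpoints linearly interpolated between the two concentrations bracketing the appropriate inhibition level. The concentration for full growth arrest is given as TGI.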
Assays:
Assay in all cases: NCI anticancer screen, dose series, 48 h
UACC-62 melanoma = tested on: UACC-62 melanoma
LOX IMVI melanoma = tested on: LOX IMVI melanoma
UACC-257 melanoma = tested on: UACC-257 melanoma
NCI-H460 lung = tested on: NCI-H460 lung
SK-OV-3 ovarian = tested on: SK-OV-3 ovarian
HOP-92 NSCLC = tested on: HOP-92 NSCLC
U251 CNS = tested on: U251 CNS
SF-295 CNS = tested on: SF-295 CNS
786-0 renal = tested on: 786-0 renal
OVCAR-4 ovarian = tested on: OVCAR-4 ovarian
SF-539 CNS = tested on: SF-539 CNS
HCT-15 colon = tested on: HCT-15 colon
HOP-18 NSCLC = tested on: HOP-18 NSCLC
A549 NSCLC = tested on: A549 NSCLC
A498 renal = tested on: A498 renal
SNB-78 CNS = tested on: SNB-78 CNS
IGROV1 ovarian = tested on: IGROV1 ovarian
HOP-62 NSCLC = tested on: HOP-62 NSCLC
HCT-116 colon = tested on: HCT-116 colon
SK-MEL-5 melanoma = tested on: SK-MEL-5 melanoma
HT29 colon = tested on: HT29 colon
ACHN renal = tested on: ACHN renal
EKVX NSCLC = tested on: EKVX NSCLC
SN12C renal = tested on: SN12C renal
SR leukemia = tested on: SR leukemia
KM12 colon = tested on: KM12 colon
M14 melanoma = tested on: M14 melanoma
NCI-H23 lung = tested on: NCI-H23 lung
DLD-1 colon = tested on: DLD-1 colon
SW-620 colon = tested on: SW-620 colon
UO-31 renal = tested on: UO-31 renal
COLO 205 colon = tested on: COLO 205 colon
MALME-3M melanoma = tested on: MALME-3M melanoma
OVCAR-3 ovarian = tested on: OVCAR-3 ovarian
HL-60(TB) leukemia = tested on: HL-60(TB) leukemia
MOLT-4 leukemia = tested on: MOLT-4 leukemia
SK-MEL-28 melanoma = tested on: SK-MEL-28 melanoma
TK-10 renal = tested on: TK-10 renal
HCC-2998 colon = tested on: HCC-2998 colon
KM20L2 colon = tested on: KM20L2 colon
NCI-H522 lung = tested on: NCI-H522 lung
NCI-H226 lung = tested on: NCI-H226 lung
CAKI-1 renal = tested on: CAKI-1 renal
RPMI-8226 leukemia = tested on: RPMI-8226 leukemia
SF-268 CNS = tested on: SF-268 CNS
RXF-631 renal = tested on: RXF-631 renal
RXF 393 renal = tested on: RXF 393 renal
SNB-75 CNS = tested on: SNB-75 CNS
M19-MEL melanoma = tested on: M19-MEL melanoma
LXFL 529 NSCLC = tested on: LXFL 529 NSCLC
OVCAR-8 ovarian = tested on: OVCAR-8 ovarian
OVCAR-5 ovarian = tested on: OVCAR-5 ovarian
K-562 leukemia = tested on: K-562 leukemia
CCRF-CEM leukemia = tested on: CCRF-CEM leukemia
SNB-19 CNS = tested on: SNB-19 CNS
HS 578T breast = tested on: HS 578T breast
SK-MEL-2 melanoma = tested on: SK-MEL-2 melanoma
XF 498 CNS = tested on: XF 498 CNS
MCF7 breast = tested on: MCF7 breast
PC-3 prostate = tested on: PC-3 prostate
MDA-MB-435 = tested on: MDA-MB-435
NCI/ADR-RES ovarian = tested on: NCI/ADR-RES ovarian
T-47D breast = tested on: T-47D breast
MDA-N = tested on: MDA-N
DMS 114 small cell lung = tested on: DMS 114 small cell lung
MDA-MB-231 breast = tested on: MDA-MB-231 breast
DU-145 prostate = tested on: DU-145 prostate
BT-549 breast = tested on: BT-549 breast

Compound: CCOC(=O)C1=NC(c2ccccc2)(c2ccccc2)OC1=C(Cl)Cl
- TGI (UACC-62 melanoma): > 100 µM
- TGI (LOX IMVI melanoma): > 100 µM
- TGI (UACC-257 melanoma): > 100 µM
- TGI (NCI-H460 lung): > 100 µM
- TGI (SK-OV-3 ovarian): > 100 µM
- TGI (HOP-92 NSCLC): > 100 µM
- TGI (U251 CNS): > 100 µM
- TGI (SF-295 CNS): > 100 µM
- TGI (786-0 renal): > 100 µM
- TGI (OVCAR-4 ovarian): > 100 µM
- TGI (SF-539 CNS): > 100 µM
- TGI (HCT-15 colon): > 100 µM
- TGI (HOP-18 NSCLC): > 100 µM
- TGI (A549 NSCLC): > 100 µM
- TGI (A498 renal): > 100 µM
- TGI (SNB-78 CNS): > 100 µM
- TGI (IGROV1 ovarian): > 100 µM
- TGI (HOP-62 NSCLC): > 100 µM
- TGI (HCT-116 colon): > 100 µM
- TGI (SK-MEL-5 melanoma): > 100 µM
- TGI (HT29 colon): > 100 µM
- TGI (ACHN renal): > 100 µM
- TGI (EKVX NSCLC): > 100 µM
- TGI (SN12C renal): > 100 µM
- TGI (SR leukemia): > 100 µM
- TGI (KM12 colon): > 100 µM
- TGI (M14 melanoma): > 100 µM
- TGI (NCI-H23 lung): > 100 µM
- TGI (DLD-1 colon): > 100 µM
- TGI (SW-620 colon): > 100 µM
- TGI (UO-31 renal): > 100 µM
- TGI (COLO 205 colon): > 100 µM
- TGI (MALME-3M melanoma): > 100 µM
- TGI (OVCAR-3 ovarian): > 100 µM
- TGI (HL-60(TB) leukemia): 34.8 µM
- TGI (MOLT-4 leukemia): > 100 µM
- TGI (SK-MEL-28 melanoma): > 100 µM
- TGI (TK-10 renal): > 100 µM
- TGI (HCC-2998 colon): 57.4 µM
- TGI (KM20L2 colon): > 100 µM
- TGI (NCI-H522 lung): > 100 µM
- TGI (NCI-H226 lung): > 100 µM
- TGI (CAKI-1 renal): > 100 µM
- TGI (RPMI-8226 leukemia): > 100 µM
- TGI (SF-268 CNS): > 100 µM
- TGI (RXF-631 renal): > 100 µM
- TGI (RXF 393 renal): 12.5 µM
- TGI (SNB-75 CNS): > 100 µM
- TGI (M19-MEL melanoma): > 100 µM
- TGI (LXFL 529 NSCLC): > 100 µM
- TGI (OVCAR-8 ovarian): > 100 µM
- TGI (OVCAR-5 ovarian): > 100 µM
- TGI (K-562 leukemia): > 100 µM
- TGI (CCRF-CEM leukemia): > 100 µM
- TGI (SNB-19 CNS): > 100 µM

Compound: CC1c2ccccc2Cn2cc3c(c21)C(=O)c1cccc(OP(=O)(O)OCc2ccccc2)c1C3=O (stereo not given)
- TGI (UACC-62 melanoma): > 100 µM
- TGI (LOX IMVI melanoma): > 100 µM
- TGI (UACC-257 melanoma): > 100 µM
- TGI (HS 578T breast): > 100 µM
- TGI (SK-MEL-2 melanoma): > 100 µM
- TGI (NCI-H460 lung): > 100 µM
- TGI (XF 498 CNS): > 100 µM
- TGI (SK-OV-3 ovarian): > 100 µM
- TGI (HOP-92 NSCLC): > 100 µM
- TGI (MCF7 breast): > 100 µM
- TGI (U251 CNS): > 100 µM
- TGI (SF-295 CNS): > 100 µM
- TGI (786-0 renal): > 100 µM
- TGI (PC-3 prostate): > 100 µM
- TGI (OVCAR-4 ovarian): > 100 µM
- TGI (SF-539 CNS): > 100 µM
- TGI (HCT-15 colon): > 100 µM
- TGI (A549 NSCLC): > 100 µM
- TGI (A498 renal): > 100 µM
- TGI (IGROV1 ovarian): > 100 µM
- TGI (HOP-62 NSCLC): > 100 µM
- TGI (HCT-116 colon): > 100 µM
- TGI (SK-MEL-5 melanoma): > 100 µM
- TGI (HT29 colon): > 100 µM
- TGI (ACHN renal): > 100 µM
- TGI (EKVX NSCLC): > 100 µM
- TGI (SN12C renal): > 100 µM
- TGI (MDA-MB-435): > 100 µM
- TGI (NCI/ADR-RES ovarian): > 100 µM
- TGI (SR leukemia): > 100 µM
- TGI (KM12 colon): > 100 µM
- TGI (M14 melanoma): > 100 µM
- TGI (NCI-H23 lung): > 100 µM
- TGI (DLD-1 colon): > 100 µM
- TGI (SW-620 colon): > 100 µM
- TGI (UO-31 renal): > 100 µM
- TGI (T-47D breast): > 100 µM
- TGI (COLO 205 colon): > 100 µM
- TGI (MALME-3M melanoma): > 100 µM
- TGI (OVCAR-3 ovarian): > 100 µM
- TGI (HL-60(TB) leukemia): > 77.3 µM
- TGI (MDA-N): > 100 µM
- TGI (MOLT-4 leukemia): > 100 µM
- TGI (DMS 114 small cell lung): > 100 µM
- TGI (SK-MEL-28 melanoma): > 100 µM
- TGI (TK-10 renal): > 100 µM
- TGI (HCC-2998 colon): > 100 µM
- TGI (KM20L2 colon): > 100 µM
- TGI (NCI-H522 lung): > 100 µM
- TGI (NCI-H226 lung): > 100 µM
- TGI (CAKI-1 renal): > 100 µM
- TGI (RPMI-8226 leukemia): > 100 µM
- TGI (SF-268 CNS): > 100 µM
- TGI (RXF-631 renal): > 100 µM
- TGI (RXF 393 renal): > 100 µM
- TGI (SNB-75 CNS): > 100 µM
- TGI (MDA-MB-231 breast): > 100 µM
- TGI (DU-145 prostate): > 100 µM
- TGI (BT-549 breast): > 100 µM
- TGI (LXFL 529 NSCLC): > 100 µM
- TGI (OVCAR-8 ovarian): > 100 µM
- TGI (OVCAR-5 ovarian): > 100 µM
- TGI (K-562 leukemia): > 100 µM
- TGI (CCRF-CEM leukemia): > 100 µM
- TGI (SNB-19 CNS): > 100 µM

Source: PubChem BioAssay (NCI)
